A short description of test [1]: Determination of aldehyde capture rate (nonenal as model aldehyde, HPLC quantification). Particulars: for Aldehyde consumption (100%): 0.05 mM compound, 0.025 mM nonenal, room temperature; for Capture rate (slope of the capture curve per unit time): higher absolute value of the slope = higher capture rate. On the procedure:
In the aldehyde capture test disclosed in the present invention, the stable lipid metabolite, nonenal, was used as the model aldehyde to react with the compound of the Example. The specific protocol was as follows.
0.05 mM of the compounds of the Examples of the present invention were precisely weighed respectively and dissolved in 1.2 mL of a mixed solution (v/v=1:1) of triolein (Aladdin, G105172-5g) and linoleic acid (Aladdin, L100442-25g), respectively. 2.5 mL of PBS (Solarbio, P1020) solution containing 20% Captisol® (Aladdin, Cl25030-25 g) was added, and the solution was stirred at room temperature overnight. After the example compound was completely dissolved, 0.025 mM nonenal (Sigma, 255653-5G) was added, and the solution was stirred vigorously at room temperature. […] The solution was mixed vigorously by vortex for 2 minutes, and centrifuged at a low speed of 1000 r/min for 3 minutes. The supernatant was transferred to an injection vial. The nonenal in the reaction mixture was analyzed quantitatively by high performance liquid chromatography. The adduct resulted from the example compound of the present invention and nonenal was analyzed qualitatively by high performance liquid chromatography-mass spectrometry.
Liquid Chromatograph: Waters I Class;
Column: ACQUITY UPLC HSS T3 1.8 μm;
Column temperature: 40° C.;
Liquid chromatography condition: mobile phase A: acetonitrile containing 0.1% formic acid; B: water containing 0.1% formic acid;
Injection volume: 0.5 mL.
Gradient of the mobile phases: […]
In the developed detection method, the retention time of the model aldehyde nonenal was 2.42 minutes. • Mass spectrometry conditions: • Mass spectrometer: Waters TQ-S micro • Ion source: ESI^+ • Capillary voltage: 0.5 kV • Cone voltage: 10V • Source temperature: 150° C. • Degassing temperature: 500° C., degassing flow: 1000 L/Hr • SIM mode • m/z: 225.24 [(mExample 1−OH)+H]^+, 365.42 [madduct 1+H]^+
The time-varying diagram of the capture reaction of the compounds of the examples of the present invention to nonenal is shown in FIG. 1.

Test [2] concerns noninfectious uveitis animal model. The experiment in a line: Therapeutic effect in lipopolysaccharide-induced noninfectious uveitis animal model (eye drops). The test is classed as in vivo, Female lewis rats. The protocol: Female lewis rats were used as the research subjects. Lewis rats (Vital River) were randomly divided into groups (4 animals per group, a total of 8 eyes). The groups are as follows: normal control group, model control group, and example administration group. The inflammation model was established in these groups except for the normal control group.
Formulation of eye drops: • (1) Formulation of drug vehicle stock solution: […] of Na2HPO4.12H2O (Xilong Scientific, 9009012-01-09), 19 mg of NaH2PO4.2H2O (Xilong Scientific, 9009013-01-09) and 9500 mg of β-cyclodextrin (Sigma, E1930253) were precisely weighed and dissolved in 30 mL sterile water for injection (Beijing CR Double-Crane), followed by addition of […] of PEG-400 (Solarbio, 222U011). The solution was mixed well, and made up to 50 mL with water for injection. • (2) Formulation of drug solution: 10 mg of the compound of Example 2 of the present invention was weighed and dissolved in 1 mL of the vehicle stock solution, and the resulting solution was made up to 2 mL with water for injection. The content of each substance is as follows: Na2HPO4.12H2O 0.83%, NaH2PO4.2H2O 0.017%, β-cyclodextrin 9.5%, PEG-400 5.0%, active compound 0.5%. • (3) The pH value of the formulated drug solution was determined by pH test paper. If the pH value was not within 7.3±0.05, then it was adjusted to this range with 1 N HCl or 1 N NaOH. […]
The animal model was a noninfectious uveitis animal model established by intraperitoneal injection of lipopolysaccharide (derived from Escherichia coli, 055:B5, Sigma, L2880-100MG, injection dose: 2 mg/kg). […] The ocular inflammation of the animals in each group was examined with a slit lamp microscope (Jiangxi Jiangfeng, LYL-S), and evaluated according to the McDonald-Shadduck scoring system (GB/T 28538-2012).
The animals were sacrificed, and the bilateral eyeballs were enucleated. […] Quantitative analysis of total protein in aqueous humor was performed on the supernatant by a BCA protein quantification kit (Beyotime, P0010). […]

Test [3] relates to allergic conjunctivitis animal model. The experiment in a line: Therapeutic effect in C48/80-induced allergic conjunctivitis animal model. The class given is in vivo, Female Wistar rats. The following applies: Wistar rats, 10 μL per eye, examined 20 minutes after administration. An excerpt: C48/80 is a polymer formed by the condensation of N-methyl-p-methoxyphenethylamine with formaldehyde, which acts directly on G protein and induces mast cell degranulation. After degranulation, the mast cell releases active substances such as histamine and kinin, which can cause acute type I allergic reactions such as telangiectasia and enhanced permeability. It can cause allergic conjunctivitis if applied topically to the ocular surface.
Female Wistar rats were used as the research subjects. Wistar rats (Vital River) were randomly divided into groups (5 animals per group, a total of 10 eyes). The groups are as follows: normal control group, model control group, positive drug group, and example administration group. The inflammation model was established in these groups except for the normal control group. Emedastine Difumarate Eye Drops (Emadine®, Alcon, H20181192) was used as the positive drug. Model establishment, administration and evaluation processes were as follows. […]
After 10 minutes of stimulation, different drug treatments were carried out according to the group settings. […] The clinical score was evaluated individually on the eyes of each animal according to the McDonald-Shadduck scoring system (GB/T 28538-2012). […]

Regarding `Cn1c2ccccc2c2cc(N)c(C(C)(C)O)nc21` [Example 2, 2-(3-Amino-9-methyl-9H-pyrido[2,3-b]indol-2-yl)propan-2-ol], the “Aldehyde consumption (100%)” value in test [1] (135 minutes) was 43.48%; in test [1] (180 minutes) it was 57.75%. The “Capture rate (slope of the capture curve per unit time)” value in test [1] (135 minutes) is recorded as −0.34; in test [1] (180 minutes) it was −0.31. Also, the “Ocular score (McDonald-Shadduck ocular inflammation score)” value in test [2] (0.5% eye drops, 20 μL/eye, 24 hours after LPS modeling, mean ± standard deviation, model control 17.0 ± 6.4, normal control 4.5 ± 0.8) is 8.6 ± 1.1. Besides, in test [2] (0.5% eye drops, 20 μL/eye, 24 hours after LPS modeling, mean ± standard deviation, model control 1062.7 ± 423.6, normal control 225.5 ± 65.4), the “Protein concentration in aqueous humor” value came out at 376.4 ± 164.0 µg/mL. In test [2] (LPS-induced uveitis, Lewis rats, eye drops), the “Therapeutic effect in ocular inflammation animal model (in words)” value is “showing a therapeutic effect”.

Take `CC(C)(O)c1cc2c(cc1N)Oc1ccccc1O2` [Example 4, 2-(3-Aminodibenzo[b,e][1,4]dioxin-2-yl)propan-2-ol]: the “Aldehyde consumption (100%)” value turned out to be 38.33% in test [1] (135 minutes) and 48.10% in test [1] (180 minutes). Also, the “Capture rate (slope of the capture curve per unit time)” value in test [1] (135 minutes) was −0.27; in test [1] (180 minutes), −0.23. For the same compound, the “Therapeutic effect on allergic conjunctivitis (McDonald-Shadduck score, FIG. 2, in words)” value in test [3] is given as “good therapeutic effect”.

(Values after patent US20240092744A1, “TRICYCLIC COMPOUND, AND PREPARATION METHOD THEREFOR AND MEDICAL USE THEREOF” (THE NATIONAL INSTITUTES OF PHARMACEUTICAL R&D CO., LTD., priority 2020, published 2024).)
